Measured values reported in the supplement of paper PMC4862054.

What was measured:
Settings in all cases: incubation time: 72 h
[1] = test system: BT-474; assay: normalised response (% of control), CellTox Green; higher = less cell death (100 = DMSO, 0 = benzethonium chloride kill control)
How it was run: (§1)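 Each value is the plate-normalised signal at one concentration of the series. Breast cancer cell lines (20 µl suspension) were incubated 72 h in 384-well plates with compound at 5 concentrations in 10-fold steps over a compound-specific 10,000-fold range. CellTox Green and then CellTiter-Glo were read, and each plate was scaled to 0.1 % DMSO (100) and a positive kill control (0).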

[2] = test system: BT-549; assay: as above
How it was run: as §1

[3] = test system: CAL-120; assay: as above
How it was run: as §1

[4] = test system: CAL-148; assay: as above
How it was run: as §1

[5] = test system: CAL-51; assay: as above
How it was run: as §1

[6] = test system: CAL-85-1; assay: as above
How it was run: as §1

[7] = test system: DU-4475; assay: as above
How it was run: as §1

[8] = test system: HCC1143; assay: as above
How it was run: as §1

[9] = test system: HCC1599; assay: as above
How it was run: as §1

[10] = test system: HCC1937; assay: as above
How it was run: as §1

[11] = test system: HDQ-P1; assay: as above
How it was run: as §1

[12] = test system: Hs578T; assay: as above
How it was run: as §1

[13] = test system: MCF-10A; assay: as above
How it was run: as §1

[14] = test system: MDA-MB-231; assay: as above
How it was run: as §1

[15] = test system: MDA-MB-436; assay: as above
How it was run: as §1

[16] = test system: MDA-MB-453; assay: as above
How it was run: as §1

[17] = test system: MFM-223; assay: as above
How it was run: as §1

[18] = test system: BT-474; assay: normalised response (% of control), CellTiter-Glo; higher = more viable cells (100 = DMSO, 0 = benzethonium chloride kill control)
How it was run: as §1

[19] = test system: BT-549; assay: as above
How it was run: as §1

[20] = test system: CAL-120; assay: as above
How it was run: as §1

[21] = test system: CAL-148; assay: as above
How it was run: as §1

[22] = test system: CAL-51; assay: as above
How it was run: as §1

[23] = test system: CAL-85-1; assay: as above
How it was run: as §1

[24] = test system: DU-4475; assay: as above
How it was run: as §1

[25] = test system: HCC1143; assay: as above
How it was run: as §1

[26] = test system: HCC1599; assay: as above
How it was run: as §1

[27] = test system: HCC1937; assay: as above
How it was run: as §1

[28] = test system: HDQ-P1; assay: as above
How it was run: as §1

[29] = test system: Hs578T; assay: as above
How it was run: as §1

[30] = test system: MCF-10A; assay: as above
How it was run: as §1

[31] = test system: MDA-MB-231; assay: as above
How it was run: as §1

[32] = test system: MDA-MB-436; assay: as above
How it was run: as §1

[33] = test system: MDA-MB-453; assay: as above
How it was run: as §1

[34] = test system: MDA-MB-468; assay: as above
How it was run: as §1

[35] = test system: MFM-223; assay: as above
How it was run: as §1

[36] = test system: SK-BR-3; assay: as above
How it was run: as §1

[37] = test system: MDA-MB-468; assay: normalised response (% of control), CellTox Green; higher = less cell death (100 = DMSO, 0 = benzethonium chloride kill control)
How it was run: as §1

| SMILES | normalised response [1] | normalised response [2] | normalised response [3] | normalised response [4] | normalised response [5] | normalised response [6] | normalised response [7] | normalised response [8] | normalised response [9] | normalised response [10] | normalised response [11] | normalised response [12] | normalised response [13] | normalised response [14] | normalised response [15] | normalised response [16] | normalised response [17] | normalised response [18] | normalised response [19] | normalised response [20] | normalised response [21] | normalised response [22] | normalised response [23] | normalised response [24] | normalised response [25] | normalised response [26] | normalised response [27] | normalised response [28] | normalised response [29] | normalised response [30] | normalised response [31] | normalised response [32] | normalised response [33] | normalised response [34] | normalised response [35] | normalised response [36] | normalised response [37] |
| --- | --- | --- | --- | --- | --- | --- | --- | --- | --- | --- | --- | --- | --- | --- | --- | --- | --- | --- | --- | --- | --- | --- | --- | --- | --- | --- | --- | --- | --- | --- | --- | --- | --- | --- | --- | --- | --- |
| CC[C@H](CO)Nc1nc(NCc2ccccc2)c2ncn(C(C)C)c2n1 [Seliciclib] (1000 nM) | 101% | 117% | 101% | 106% | 101% | 95.5% | 99.2% | 107% | 103% | 125% | 92.7% | 86.4% | 101% | 114% | 84.6% | 102% | 95.6% | 96.9% | 95.8% | 97.4% | 104% | 80.4% | 112% | 101% | 103% | 111% | 105% | 101% | 109% | 95.3% | 104% | 107% | 115% | 110% | 109% | 106% |  |
| C=CCN(/C=C1/C(=O)O[C@H](COC)[C@@]2(C)C1=C(O)C(=O)C1=C2[C@H](OC(C)=O)C[C@]2(C)C(=O)CC[C@@H]12)CC=C [Sonolisib] (10 nM) |  |  |  |  |  |  |  |  |  |  |  |  |  |  |  |  |  | 112% | 102% | 101% | 107% | 108% | 102% | 106% | 107% | 95.1% | 106% | 94.4% | 97.9% | 105% | 102% | 111% | 104% | 101% | 109% | 123% |  |
| C=CCN(/C=C1/C(=O)O[C@H](COC)[C@@]2(C)C1=C(O)C(=O)C1=C2[C@H](OC(C)=O)C[C@]2(C)C(=O)CC[C@@H]12)CC=C [Sonolisib] (1000 nM) | 95.1% | 112% | 102% | 109% | 104% | 97% | 104% | 82.6% | 115% |  | 98.1% | 89.7% | 66.6% | 111% | 103% | 109% | 104% | 106% | 97.4% | 102% | 109% | 77.5% | 105% | 99% | 102% | 110% | 99.8% | 101% | 99.2% | 97.6% | 103% | 112% | 105% | 102% | 107% | 105% | 112% |
| O=[N+]([O-])c1ccc2c(c1)S(=O)(=O)C=C2 [Stattic] (5 nM) |  |  |  |  |  |  |  |  |  |  |  |  |  |  |  |  |  | 98.6% | 105% | 95.3% | 103% | 102% | 95.5% | 106% | 101% | 114% | 94.6% | 98.8% | 104% | 111% | 96.2% | 99.5% | 106% | 99.8% | 101% | 99.3% |  |
| CC(C)n1cnc2c(NCCc3ccc(O)cc3)nc(-c3csc4ccccc34)nc21 [StemRegenin 1] (1 nM) |  |  |  |  |  |  |  |  |  |  |  |  |  |  |  |  |  | 102% | 96.7% | 96.6% | 98.7% | 81.3% | 99.2% | 102% | 98.1% | 99.6% | 98.6% | 103% | 104% | 106% | 99.7% | 105% | 115% | 92.6% | 103% | 108% |  |
| CC(C)n1cnc2c(NCCc3ccc(O)cc3)nc(-c3csc4ccccc34)nc21 [StemRegenin 1] (10 nM) |  |  |  |  |  |  |  |  |  |  |  |  |  |  |  |  |  | 105% | 92.2% | 97.4% | 109% | 68.8% | 96.9% | 100% | 106% | 79.5% | 96.3% | 99.6% | 109% | 105% | 97.5% | 96.1% | 103% | 97.3% | 102% | 98.3% |  |
